Assay results taken from PMC11811690 (Angewandte Chemie (International Ed. in English), 2024).
Converted amounts (≈) assume the structure as drawn. Like-named read-outs stand apart in the source and are kept apart here.

Key:
Assay in all cases: microbe, parasite or virus in culture
[1] = tested on: M. tuberculosis H37Rv poly-g-GFP; format: cell-based; details: Mycobacterium tuberculosis, 336 h, read-out: MIC Mtb H37Rv-poly-g-GFP, turbidity read-out
C. difficile 630 = format: cell-based, Clostridioides difficile; details: Clostridioides difficile; C. difficile 630, anaerobic, overnight, growth suppressed to OD600 < 0.15; read-out: MIC C. difficile
[2] = tested on: M. tuberculosis H37Rv poly-g-GFP; format: cell-based; details: Mycobacterium tuberculosis, H37RV, 240 h, read-out: IC90 Mtb H37Rv-poly-g-GFP, fluorescence read-out

Row | SMILES | MIC [1] | MIC (C. difficile 630) | IC90 [2] | MIC ([1]; 14 days, 37 °C, turbidity by eye) | IC90 ([2]; concentration for 90 % inhibition of fluorescence as proxy for growth inhibition, 10 days, 37 °C)
1 | CO[C@H]1/C=C/O[C@@]2(C)Oc3c(C)c(O)c4c(O)c(c(/C=N/N5CCN(C)CC5)c(O)c4c3C2=O)NC(=O)/C(C)=C\C=C\[C@H](C)[C@H](O)[C@@H](C)[C@@H](O)[C@@H](C)[C@H](OC(C)=O)[C@@H]1C [Rif, Rifampicin, reference compound] | < 0.12 µg/mL |  |  |  | 
2 | CC[C@H]1/C=C(\C)[C@@H](O)C/C=C/C=C(\CN2CCN(c3ccccc3)CC2)C(=O)O[C@H]([C@@H](C)O)C/C=C(C)/C=C(\C)[C@@H]1O[C@@H]1OC(C)(C)[C@@H](OC(=O)C(C)C)[C@H](O)[C@@H]1O [compound 2] |  | > 32 µg/mL | 16 µg/mL (≈ 19.8 µM) |  | 
3 | CC[C@H]1/C=C(\C)[C@@H](O)C/C=C/C=C(\CN2CCN(c3ccncc3)CC2)C(=O)O[C@H]([C@@H](C)O)C/C=C(C)/C=C(\C)[C@@H]1O[C@@H]1OC(C)(C)[C@@H](OC(=O)C(C)C)[C@H](O)[C@@H]1O [compound 3] |  |  | 16 µg/mL (≈ 19.8 µM) |  | 
4 | CC[C@H]1/C=C(\C)[C@@H](O)C/C=C/C=C(\CN2CCN(CCOc3ncccn3)CC2)C(=O)O[C@H]([C@@H](C)O)C/C=C(C)/C=C(\C)[C@@H]1O[C@@H]1OC(C)(C)[C@@H](OC(=O)C(C)C)[C@H](O)[C@@H]1O [compound 4] |  |  | > 64 µg/mL |  | 
5 | CC[C@H]1/C=C(\C)[C@@H](O)C/C=C/C=C(\CN2CCN(Cc3ccc(F)cc3)CC2)C(=O)O[C@H]([C@@H](C)O)C/C=C(C)/C=C(\C)[C@@H]1O[C@@H]1OC(C)(C)[C@@H](OC(=O)C(C)C)[C@H](O)[C@@H]1O [compound 6] |  | 16 µg/mL (≈ 19 µM) | 16 µg/mL (≈ 19 µM) |  | 
6 | CC[C@H]1/C=C(\C)[C@@H](O)C/C=C/C=C(\CN(C)Cc2nnc(-c3ccccc3)o2)C(=O)O[C@H]([C@@H](C)O)C/C=C(C)/C=C(\C)[C@@H]1O[C@@H]1OC(C)(C)[C@@H](OC(=O)C(C)C)[C@H](O)[C@@H]1O [compound 7] | 8 µg/mL (≈ 9.57 µM) | 16 µg/mL (≈ 19.1 µM) | 8 µg/mL (≈ 9.57 µM) |  | 
7 | CC[C@H]1/C=C(\C)[C@@H](O)C/C=C/C=C(\CNc2nc3ccccc3s2)C(=O)O[C@H]([C@@H](C)O)C/C=C(C)/C=C(\C)[C@@H]1O[C@@H]1OC(C)(C)[C@@H](OC(=O)C(C)C)[C@H](O)[C@@H]1O [compound 9] | 4 to 8 µg/mL (≈ 5.02 to 10 µM) | 2 µg/mL (≈ 2.51 µM) | 8 µg/mL (≈ 10 µM) |  | 
8 | CC[C@H]1/C=C(\C)[C@@H](O)C/C=C/C=C(\CNc2nc3c(s2)CCCC3)C(=O)O[C@H]([C@@H](C)O)C/C=C(C)/C=C(\C)[C@@H]1O[C@@H]1OC(C)(C)[C@@H](OC(=O)C(C)C)[C@H](O)[C@@H]1O [compound 11] |  | 8 to 16 µg/mL (≈ 9.99 to 20 µM) | 16 µg/mL (≈ 20 µM) |  | 
9 | CC[C@H]1/C=C(\C)[C@@H](O)C/C=C/C=C(\CNc2nc3c(s2)CN(C)CC3)C(=O)O[C@H]([C@@H](C)O)C/C=C(C)/C=C(\C)[C@@H]1O[C@@H]1OC(C)(C)[C@@H](OC(=O)C(C)C)[C@H](O)[C@@H]1O [compound 12] |  |  | 32 µg/mL (≈ 39.2 µM) |  | 
10 | CC[C@H]1/C=C(\C)[C@@H](O)C/C=C/C=C(\CNCc2nc3ccccc3s2)C(=O)O[C@H]([C@@H](C)O)C/C=C(C)/C=C(\C)[C@@H]1O[C@@H]1OC(C)(C)[C@@H](OC(=O)C(C)C)[C@H](O)[C@@H]1O [compound 14] |  | > 32 µg/mL | 16 µg/mL (≈ 19.7 µM) |  | 
11 | CC[C@H]1/C=C(\C)[C@@H](O)C/C=C/C=C(\CNCc2cc(-c3ccccc3)no2)C(=O)O[C@H]([C@@H](C)O)C/C=C(C)/C=C(\C)[C@@H]1O[C@@H]1OC(C)(C)[C@@H](OC(=O)C(C)C)[C@H](O)[C@@H]1O [compound 15] |  |  | 16 µg/mL (≈ 19.5 µM) |  | 
12 | CC[C@H]1/C=C(\C)[C@@H](O)C/C=C/C=C(\CNCc2nnc(-c3cc(Cl)cc(Cl)c3O)o2)C(=O)O[C@H]([C@@H](C)O)C/C=C(C)/C=C(\C)[C@@H]1O[C@@H]1OC(C)(C)[C@@H](OC(=O)C(C)C)[C@H](O)[C@@H]1O [compound 17] |  | 2 µg/mL (≈ 2.21 µM) | 32 µg/mL (≈ 35.3 µM) |  | 
13 | CC[C@H]1/C=C(\C)[C@@H](O)C/C=C/C=C(\CNCc2nnc(C)o2)C(=O)O[C@H]([C@@H](C)O)C/C=C(C)/C=C(\C)[C@@H]1O[C@@H]1OC(C)(C)[C@@H](OC(=O)C(C)C)[C@H](O)[C@@H]1O [compound 19] |  | 32 µg/mL (≈ 42.1 µM) | 16 µg/mL (≈ 21.1 µM) |  | 
14 | CC[C@H]1/C=C(\C)[C@@H](O)C/C=C/C=C(\CNCc2nnc(-c3cccc(O)c3O)o2)C(=O)O[C@H]([C@@H](C)O)C/C=C(C)/C=C(\C)[C@@H]1O[C@@H]1OC(C)(C)[C@@H](OC(=O)C(C)C)[C@H](O)[C@@H]1O [compound 22] | 2 µg/mL (≈ 2.34 µM) | 8 µg/mL (≈ 9.37 µM) | 4 µg/mL (≈ 4.68 µM) |  | 
15 | CC[C@H]1/C=C(\C)[C@@H](O)C/C=C/C=C(\CNCc2nnc(-c3ccc(C(F)(F)F)cc3)o2)C(=O)O[C@H]([C@@H](C)O)C/C=C(C)/C=C(\C)[C@@H]1O[C@@H]1OC(C)(C)[C@@H](OC(=O)C(C)C)[C@H](O)[C@@H]1O [compound 23] |  | 4 µg/mL (≈ 4.49 µM) |  | 2 µg/mL (≈ 2.25 µM) | 8 µg/mL (≈ 8.99 µM)
